From ChEMBL document CHEMBL6087482, “Discovery of INCB159020, an Orally Bioavailable KRAS G12D Inhibitor” (J Med Chem, 2025)

Assays:
Cytochrome P450 2C9 = Cytochrome P450 2C9 (Homo sapiens, UniProt P11712); assay: Inhibition of CYP2C9 (unknown origin); assay type: ADME
[1] = Drug concentration in mouse plasma xenografted with HPAC cells at 100 mg/kg, po measured after 24 hrs; assay type: ADME, organism-based
[2] = Oral bioavailability in Non human primate at […]; assay type: ADME, organism-based; conditions: primates, in vivo, dose 1.5 mg/kg
[3] = Cmax in Sprague-Dawley rat at 3 mg/kg, po or 1 mg/kg, iv measured after 24 hrs by LC-MS/MS analysis; assay type: ADME, organism-based; conditions: in vivo
[4] = Intrinsic clearance in human liver microsomes at 1 uM measured upto 30 mins in presence of NADPH by LC/MS analysis; assay type: ADME, Microsome; conditions: read-out: CLH (converted)
Cytochrome P450 = assay: Time dependent inhibition of CYP (unknown origin); assay type: ADME, protein assay; conditions: human
[5] = Solubility of compound in FASSIF; assay type: physicochemical
[6] = Toxicity in mouse xenografted with human HPAC cells assessed as tolerance at 30 to 300 mg/kg, po measured after 24 hrs; assay type: organism-based; conditions: in vivo, dose 30-300 mg/kg
[7] = Clearance in Sprague-Dawley rat assessed as hepatic blood flow at 3 mg/kg, po or 1 mg/kg, iv measured after 24 hrs by LC-MS/MS analysis; assay type: ADME, organism-based; conditions: in vivo
[8] = Half-life in Sprague-Dawley rat at 3 mg/kg, po or 1 mg/kg, iv measured after 24 hrs by LC-MS/MS analysis; assay type: ADME, organism-based; conditions: in vivo
[9] = biological target: Voltage-gated inwardly rectifying potassium channel KCNH2 (Homo sapiens, UniProt Q12809); assay: Inhibition of human ERG; assay type: toxicity
Sequence of Voltage-gated inwardly rectifying potassium channel KCNH2 (Q12809 whole entry): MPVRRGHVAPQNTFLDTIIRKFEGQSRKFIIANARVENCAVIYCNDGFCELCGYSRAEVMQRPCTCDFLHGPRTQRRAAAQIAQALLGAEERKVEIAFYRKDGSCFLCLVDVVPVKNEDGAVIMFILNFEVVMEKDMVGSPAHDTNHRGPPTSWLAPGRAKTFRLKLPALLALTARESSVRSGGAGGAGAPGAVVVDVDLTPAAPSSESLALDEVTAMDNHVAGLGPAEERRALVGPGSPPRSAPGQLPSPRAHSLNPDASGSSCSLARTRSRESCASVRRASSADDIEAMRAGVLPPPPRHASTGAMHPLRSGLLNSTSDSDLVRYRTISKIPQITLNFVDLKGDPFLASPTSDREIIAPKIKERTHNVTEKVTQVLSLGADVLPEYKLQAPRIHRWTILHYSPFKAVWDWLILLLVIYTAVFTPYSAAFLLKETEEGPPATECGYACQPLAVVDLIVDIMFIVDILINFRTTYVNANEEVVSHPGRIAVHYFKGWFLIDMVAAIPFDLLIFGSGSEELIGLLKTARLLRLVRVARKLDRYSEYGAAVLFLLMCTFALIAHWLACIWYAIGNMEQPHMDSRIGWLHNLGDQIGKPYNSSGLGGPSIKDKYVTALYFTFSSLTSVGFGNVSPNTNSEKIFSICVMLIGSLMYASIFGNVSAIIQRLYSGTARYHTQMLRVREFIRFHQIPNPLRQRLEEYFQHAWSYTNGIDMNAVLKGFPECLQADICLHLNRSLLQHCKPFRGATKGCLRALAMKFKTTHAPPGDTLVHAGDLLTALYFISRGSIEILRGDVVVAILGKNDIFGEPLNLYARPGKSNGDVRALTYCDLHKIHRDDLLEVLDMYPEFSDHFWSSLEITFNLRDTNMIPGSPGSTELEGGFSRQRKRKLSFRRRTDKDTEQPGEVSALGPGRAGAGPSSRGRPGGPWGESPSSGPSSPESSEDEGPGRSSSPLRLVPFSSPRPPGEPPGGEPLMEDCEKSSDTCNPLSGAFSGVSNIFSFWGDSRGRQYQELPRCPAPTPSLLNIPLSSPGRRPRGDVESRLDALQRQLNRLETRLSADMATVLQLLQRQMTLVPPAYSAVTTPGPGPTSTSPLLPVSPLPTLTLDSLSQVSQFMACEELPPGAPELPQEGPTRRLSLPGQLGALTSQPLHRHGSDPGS

Primates = assay: Clearance in Non human primate assessed as hepatic blood flow at […], po or 1 mg/kg, iv; assay type: ADME, organism-based; conditions: in vivo, dose 1.5 mg/kg
[10] = Cmax in Non human primate at […], po or 1 mg/kg, iv; assay type: ADME, organism-based; conditions: primates, in vivo, dose 1.5 mg/kg
[11] = Oral bioavailability in Sprague-Dawley rat at 3 mg/kg measured after 24 hrs by LC-MS/MS analysis; assay type: ADME, organism-based; conditions: in vivo
[12] = biological target: High affinity nerve growth factor receptor (Homo sapiens, UniProt P04629); assay: Binding affinity to TRKA (unknown origin) in presence of ATP
Sequence of High affinity nerve growth factor receptor (P04629 whole entry): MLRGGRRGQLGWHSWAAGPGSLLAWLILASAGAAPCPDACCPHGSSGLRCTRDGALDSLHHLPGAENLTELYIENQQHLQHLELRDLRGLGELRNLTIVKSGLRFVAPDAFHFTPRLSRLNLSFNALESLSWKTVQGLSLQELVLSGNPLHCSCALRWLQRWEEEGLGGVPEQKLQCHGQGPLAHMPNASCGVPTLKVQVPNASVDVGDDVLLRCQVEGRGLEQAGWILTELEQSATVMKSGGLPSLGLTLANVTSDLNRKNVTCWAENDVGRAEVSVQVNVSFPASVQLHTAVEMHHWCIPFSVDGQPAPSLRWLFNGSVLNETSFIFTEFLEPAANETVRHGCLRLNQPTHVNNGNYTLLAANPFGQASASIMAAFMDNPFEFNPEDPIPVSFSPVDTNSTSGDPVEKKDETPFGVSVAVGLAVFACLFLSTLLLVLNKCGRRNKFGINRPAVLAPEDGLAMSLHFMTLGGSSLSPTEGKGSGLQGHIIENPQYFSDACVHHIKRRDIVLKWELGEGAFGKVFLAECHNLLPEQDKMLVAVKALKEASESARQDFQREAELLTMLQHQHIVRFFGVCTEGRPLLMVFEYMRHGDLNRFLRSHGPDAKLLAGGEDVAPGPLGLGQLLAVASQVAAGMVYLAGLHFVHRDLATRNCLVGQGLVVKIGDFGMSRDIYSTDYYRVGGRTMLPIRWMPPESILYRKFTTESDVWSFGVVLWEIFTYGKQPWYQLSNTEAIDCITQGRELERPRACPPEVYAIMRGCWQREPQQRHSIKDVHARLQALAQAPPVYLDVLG

Cytochrome P450 2D6 = Cytochrome P450 2D6 (Homo sapiens, UniProt P10635); assay: Inhibition of CYP2D6 (unknown origin); assay type: ADME
Sequence of Cytochrome P450 2D6 (P10635 whole entry): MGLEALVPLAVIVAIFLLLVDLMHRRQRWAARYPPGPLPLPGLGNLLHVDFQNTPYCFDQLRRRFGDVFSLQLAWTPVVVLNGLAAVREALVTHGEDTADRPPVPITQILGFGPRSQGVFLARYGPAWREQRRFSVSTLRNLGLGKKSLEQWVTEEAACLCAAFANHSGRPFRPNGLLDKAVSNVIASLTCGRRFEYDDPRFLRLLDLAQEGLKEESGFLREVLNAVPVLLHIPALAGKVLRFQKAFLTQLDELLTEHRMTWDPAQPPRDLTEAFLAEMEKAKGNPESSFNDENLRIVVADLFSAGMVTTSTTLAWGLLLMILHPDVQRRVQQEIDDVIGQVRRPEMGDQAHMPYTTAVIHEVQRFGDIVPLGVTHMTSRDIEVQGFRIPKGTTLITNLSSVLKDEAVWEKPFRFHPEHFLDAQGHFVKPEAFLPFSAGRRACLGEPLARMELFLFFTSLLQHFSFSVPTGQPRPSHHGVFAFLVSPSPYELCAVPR

[13] = Half-life in Non human primate at […], po or 1 mg/kg, iv; assay type: ADME, organism-based; conditions: primates, in vivo, dose 1.5 mg/kg
[14] = AUC in Sprague-Dawley rat at 3 mg/kg, po or 1 mg/kg, iv measured after 24 hrs by LC-MS/MS analysis; assay type: ADME, organism-based; conditions: in vivo
Cytochrome P450 2B6 = biological target: T1, Cytochrome P450 2B6 (Homo sapiens, UniProt P20813); assay: Inhibition of CYP2B6 (unknown origin); assay type: ADME
T1 sequence (P20813 whole entry): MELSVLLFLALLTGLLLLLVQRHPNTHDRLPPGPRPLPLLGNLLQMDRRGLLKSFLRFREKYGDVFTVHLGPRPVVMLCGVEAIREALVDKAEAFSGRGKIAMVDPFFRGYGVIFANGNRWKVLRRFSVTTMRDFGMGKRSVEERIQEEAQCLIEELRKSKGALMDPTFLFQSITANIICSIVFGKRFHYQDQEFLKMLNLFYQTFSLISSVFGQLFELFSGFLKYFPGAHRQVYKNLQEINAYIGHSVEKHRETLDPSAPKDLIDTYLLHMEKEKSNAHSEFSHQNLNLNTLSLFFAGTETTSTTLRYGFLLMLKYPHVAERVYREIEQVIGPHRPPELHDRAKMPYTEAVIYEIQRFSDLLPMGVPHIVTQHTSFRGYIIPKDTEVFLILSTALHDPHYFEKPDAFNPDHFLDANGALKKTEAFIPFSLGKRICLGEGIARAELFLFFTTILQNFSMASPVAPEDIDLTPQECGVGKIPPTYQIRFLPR

[15] = Apparent permeability across apical to basolateral side in human Caco-2 cells at 50 uM incubated for 120 mins by LC-MS analysis; assay type: ADME, cell-based
[16] = AUC in Non human primate at […], po or 1 mg/kg, iv; assay type: ADME, organism-based; conditions: primates, in vivo, dose 1.5 mg/kg
Aurora kinase B = Aurora kinase B (Homo sapiens, UniProt Q96GD4); assay: Binding affinity to Aurora B (unknown origin) in presence of ATP
Sequence of Aurora kinase B (Q96GD4 whole entry): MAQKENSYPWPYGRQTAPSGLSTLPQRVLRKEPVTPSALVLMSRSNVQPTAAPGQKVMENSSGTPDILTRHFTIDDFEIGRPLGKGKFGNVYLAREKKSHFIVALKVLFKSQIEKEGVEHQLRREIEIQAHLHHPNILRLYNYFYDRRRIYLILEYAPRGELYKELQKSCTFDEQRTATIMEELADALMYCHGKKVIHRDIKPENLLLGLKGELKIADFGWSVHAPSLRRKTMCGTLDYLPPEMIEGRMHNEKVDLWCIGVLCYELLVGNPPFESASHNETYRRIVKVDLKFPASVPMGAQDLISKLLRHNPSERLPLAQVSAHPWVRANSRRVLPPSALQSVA

[17] = Solubility of compound in SGF; assay type: physicochemical
[18] = Drug concentration in mouse plasma xenografted with HPAC cells at 300 mg/kg, po measured after 24 hrs; assay type: ADME, organism-based
Cytochrome P450 3A4 = Cytochrome P450 3A4 (Homo sapiens, UniProt P08684); assay: Inhibition of CYP3A4 (unknown origin); assay type: ADME
Sequence of Cytochrome P450 3A4 (P08684 whole entry): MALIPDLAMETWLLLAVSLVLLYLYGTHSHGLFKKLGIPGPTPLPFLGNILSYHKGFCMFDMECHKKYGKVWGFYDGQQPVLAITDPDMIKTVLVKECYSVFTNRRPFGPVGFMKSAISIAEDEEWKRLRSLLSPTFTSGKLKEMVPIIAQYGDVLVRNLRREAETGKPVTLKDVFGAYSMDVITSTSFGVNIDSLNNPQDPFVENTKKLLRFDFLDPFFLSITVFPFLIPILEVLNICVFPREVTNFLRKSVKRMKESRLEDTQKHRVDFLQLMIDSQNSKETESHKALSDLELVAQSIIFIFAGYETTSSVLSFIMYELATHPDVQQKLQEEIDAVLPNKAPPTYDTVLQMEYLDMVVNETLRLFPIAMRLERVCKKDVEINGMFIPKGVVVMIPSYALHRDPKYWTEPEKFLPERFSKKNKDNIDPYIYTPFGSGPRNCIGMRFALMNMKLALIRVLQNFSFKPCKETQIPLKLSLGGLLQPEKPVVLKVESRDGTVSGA

Cytochrome P450 1A2 = biological target: T2, Cytochrome P450 1A2 (Homo sapiens, UniProt P05177); assay: Inhibition of CYP1A2 (unknown origin); assay type: ADME
T2 sequence (P05177 whole entry): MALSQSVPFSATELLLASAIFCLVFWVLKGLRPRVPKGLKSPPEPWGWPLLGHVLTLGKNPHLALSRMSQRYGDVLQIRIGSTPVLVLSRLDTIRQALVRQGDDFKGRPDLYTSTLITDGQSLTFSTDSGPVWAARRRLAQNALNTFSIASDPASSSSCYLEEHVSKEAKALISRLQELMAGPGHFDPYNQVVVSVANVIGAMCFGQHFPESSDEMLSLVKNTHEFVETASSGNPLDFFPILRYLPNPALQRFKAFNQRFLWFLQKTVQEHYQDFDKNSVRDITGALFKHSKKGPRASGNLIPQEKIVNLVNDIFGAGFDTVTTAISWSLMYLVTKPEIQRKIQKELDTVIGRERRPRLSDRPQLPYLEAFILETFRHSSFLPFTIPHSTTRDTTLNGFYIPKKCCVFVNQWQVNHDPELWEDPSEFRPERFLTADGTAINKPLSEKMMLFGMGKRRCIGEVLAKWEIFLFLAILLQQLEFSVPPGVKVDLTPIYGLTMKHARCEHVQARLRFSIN

Sequence of Cytochrome P450 2C9 (P11712 whole entry): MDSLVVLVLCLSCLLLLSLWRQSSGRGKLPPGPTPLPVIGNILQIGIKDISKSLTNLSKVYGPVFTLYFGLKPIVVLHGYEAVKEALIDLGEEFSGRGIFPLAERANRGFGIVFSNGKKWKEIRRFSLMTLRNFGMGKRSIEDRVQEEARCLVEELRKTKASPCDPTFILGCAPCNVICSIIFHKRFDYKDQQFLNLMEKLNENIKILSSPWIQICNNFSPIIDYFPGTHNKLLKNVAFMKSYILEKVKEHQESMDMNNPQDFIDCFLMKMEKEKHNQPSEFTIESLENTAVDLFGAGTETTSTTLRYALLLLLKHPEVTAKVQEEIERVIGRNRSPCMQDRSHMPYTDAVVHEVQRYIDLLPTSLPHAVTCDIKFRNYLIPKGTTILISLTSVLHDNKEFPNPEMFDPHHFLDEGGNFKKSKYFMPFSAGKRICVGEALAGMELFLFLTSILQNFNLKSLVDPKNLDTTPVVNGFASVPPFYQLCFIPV

- IC50 (Cytochrome P450 2C9): > 20 µM
- concentration at 24 h [1]: ~950 nM
- bioavailability [2]: 42%
- Cmax [3]: 57 nM
- hepatic clearance at 1 µM [4]: 16.7 mL/min/kg
- TDI (Cytochrome P450): Not_active
- solubility [5]: > 79 µg/mL
- QH [7]: > 100%
- half-life [8]: 3.8 h
- QH (Primates): 37%
- Cmax [10]: 100 nM
- bioavailability [11]: 27%
- IC50 [12]: 3.9 µM
- IC50 (Cytochrome P450 2D6): 7.2 µM
- half-life [13]: 6.4 h
- AUC at 24 h [14]: 0.331 µM·h
- IC50 (Cytochrome P450 2B6): > 20 µM
- Papp A→B at 2 h, 50 µM [15]: 3.6 ×10⁻⁶ cm/s
- AUC [16]: 0.95 µM·h
- IC50 (Aurora kinase B): 5.8 µM
- solubility [17]: > 900 µg/mL
- concentration at 24 h [18]: ~8500 nM
- IC50 (Cytochrome P450 3A4): 17 µM
- IC50 (Cytochrome P450 1A2): > 20 µM
SMILES: Cc1cnc(-c2nc3c(F)c(-c4cccc(Cl)c4C)c(CCC#N)cc3c3c2cc([C@@H](C)N2CCOCC2=O)n3[C@H]2[C@H]3CN[C@@H]2C3)cn1
- Activity [6]: Non-toxic
- IC50 [9]: 11.2 µM
